# Values of other authors as cited in patent US20230364095A1, “TOPICAL TREATMENT OF VITILIGO” (INCYTE CORPORATION, priority 2020, published 2023).
# Like-named read-outs stand apart in the source and are kept apart here.
# Tested on: patients with vitiligo
Structure (SMILES),"Clinical outcome (case report) (oral 20 mg BID for 20 weeks, patient with alopecia areata and vitiligo)","Clinical outcome (case report) (oral 5 mg QD, after 5 months, widespread and progressive vitiligo)"
"N#CC[C@H](C1CCCC1)n1cc(-c2ncnc3[nH]ccc23)cn1 [ruxolitinib, (R)-3-(4-(7H-pyrrolo[2,3-d]pyrimidin-4-yl)-1H-pyrazol-1-yl)-3-cyclopentylpropanenitrile]",hair regrowth as well as repigmentation of areas affected with vitiligo,–
C[C@@H]1CCN(C(=O)CC#N)C[C@@H]1N(C)c1ncnc2[nH]ccc12 [tofacitinib],–,near complete repigmentation
